Reference: PMC6199744, “Development of Chemical Proteomics for the Folateome and Analysis of the Kinetoplastid Folateome” (ACS Infectious Diseases, 2018)
Values joined by “and” are separate entries in the source; they are usually repeats but may differ in a detail not shown here. Equal values may be shown once. Read-outs that look alike come from different tables or passages of the source.

Tested on: T. brucei lysate proteins
Assay type: binding, Trypanosoma brucei

NCCOCCOCC(=O)Nc1nc2ncc(CNc3ccc(C(=O)NC(CCC(=O)O)C(=O)O)cc3)nc2c(=O)[nH]1 (stereo not shown) [compound 6]
fold change vs vehicle control: 0.88 and 0.97 and 1.1 and 0.99 and 0.76 and 1 | fold change (protein CZB00000046.1 HA-UBIQUITIN, vehicle control = 1): 0.9 | fold change (protein CZT00018965.1 RETRO[…] (RHS) PROTEIN 1, vehicle control = 1): 1.49 | fold change (protein RHS6A, vehicle control = 1): 1 | fold change vs vehicle control (protein TB09.160.3270 ATP-DEPENDENT DEAD BOX HELICASE, PUTATIVE, vehicle control = 1): 1.28 | fold change vs vehicle control (protein TB09.160.4200 60S ACIDIC RIBOSOMAL PROTEIN, PUTATIVE, vehicle control = 1): 0.88 | fold change vs vehicle control (protein TB09.211.2630 60S RIBOSOMAL PROTEIN L23, PUTATIVE, vehicle control = 1): 0.96 | fold change (protein TB09.211.4760 METACASPASE 5, PUTATIVE, vehicle control = 1): 0.82 | fold change (protein TB11.01.1690 HY[…], CONSERVED, vehicle control = 1): 1.19 | fold change vs vehicle control (protein TB11.01.2560 40S RIBOSOMAL PROTEIN SA, PUTATIVE, vehicle control = 1): 0.94 | fold change vs vehicle control (protein TB11.01.3180 GUANINE NUCLEOTIDE-BINDING PROTEIN BETA SUBUNIT-LIKE PROTEIN, vehicle control = 1): 0.97 | fold change (protein TB11.01.3560 VACUOLAR ATP SYNTHASE SUBUNIT B, PUTATIVE, vehicle control = 1): 0.93 | fold change vs vehicle control (protein TB11.01.4370 HY[…], CONSERVED, vehicle control = 1): 0.96 | fold change (protein TB11.01.5350 PROFILIN, vehicle control = 1): 0.97 | fold change vs vehicle control (protein TB11.01.5910 DYNEIN IN[…] IC70, PUTATIVE, vehicle control = 1): 0.99 | fold change (protein TB11.01.8590 RAB-LIKE 5, SMALL G PROTEIN, vehicle control = 1): 0.94 | fold change (protein TB11.01.8740 PROTEIN PHOSPHATASE 4, PUTATIVE, vehicle control = 1): 0.8 | fold change vs vehicle control (protein TB11.02.0730 METACASPASE, vehicle control = 1): 0.84 | fold change vs vehicle control (protein TB11.02.1135 DYNEIN LIGHT CHAIN, PUTATIVE, vehicle control = 1): 1.14 | fold change vs vehicle control (protein TB11.02.2040 HY[…], CONSERVED (ALBA-Domain Protein), vehicle control = 1): 1.34 | fold change vs vehicle control (protein TB11.02.2420 HY[…], CONSERVED, vehicle control = 1): 0.9 | fold change vs vehicle control (protein TB11.02.2510 GUANINE NUCLEOTIDE-BINDING BETA SUBUNIT-LIKE PROTEIN, vehicle control = 1): 1 | fold change vs vehicle control (protein TB11.02.2640 DYNEIN IN[…] IC78, PUTATIVE, vehicle control = 1): 0.97 | fold change (protein TB11.02.2960 MIT[…] PROTEIN, PUTATIVE, vehicle control = 1): 0.88 | fold change vs vehicle control (protein TB11.03.0250 C[…], vehicle control = 1): 1.45 | fold change (protein TB11.46.0009 HY[…], CONSERVED, vehicle control = 1): 0.99 | fold change vs vehicle control (protein TB427TMP.01.1680 POLYUBIQUITIN, PUTATIVE, vehicle control = 1): 1.25 | fold change (protein TB427TMP.01.1830 HY[…], CONSERVED, vehicle control = 1): 0.89 | fold change vs vehicle control (protein TB427TMP.01.4280 HY[…], CONSERVED, vehicle control = 1): 0.84 | fold change (protein TB427TMP.01.4750 […] 1 GAMMA, PUTATIVE, vehicle control = 1): 1 | fold change vs vehicle control (protein TB427TMP.01.5000 HY[…], CONSERVED, vehicle control = 1): 0.91 | fold change vs vehicle control (protein TB427TMP.01.5680 HY[…], CONSERVED, vehicle control = 1): 1.21 | fold change (protein TB427TMP.01.5960 MIT[…] PROTEIN, PUTATIVE, vehicle control = 1): 0.82 | fold change vs vehicle control (protein TB427TMP.01.6890 SMALL GTPASE, PUTATIVE, vehicle control = 1): 1.56 | fold change (protein TB427TMP.01.7490 HY[…], CONSERVED, vehicle control = 1): 0.97 | fold change (protein TB427TMP.01.8390 HY[…], CONSERVED, vehicle control = 1): 0.88 | fold change (protein TB427TMP.02.0030 DYNEIN HEAVY CHAIN, PUTATIVE, vehicle control = 1): 1 | fold change (protein TB427TMP.02.0760 DYNEIN HEAVY CHAIN, PUTATIVE, vehicle control = 1): 0.82 | fold change (protein TB427TMP.02.1070 AMINOPEPTIDASE, PUTATIVE, vehicle control = 1): 1.1 | fold change (protein TB427TMP.02.1460 HY[…], CONSERVED, vehicle control = 1): 0.98 | fold change (protein TB427TMP.02.1860 HY[…], CONSERVED, vehicle control = 1): 0.97 | fold change vs vehicle control (protein TB427TMP.02.2070 LONG-CHAIN-FATTY-ACID-COA LIGASE, PUTATIVE, vehicle control = 1): 0.99 | fold change vs vehicle control (protein TB427TMP.02.2120 NUCLEOPORIN 48, vehicle control = 1): 1.18 | fold change vs vehicle control (protein TB427TMP.02.2890 HY[…], CONSERVED, vehicle control = 1): 0.94 | fold change (protein TB427TMP.02.4100 PRETRA[…], ALPHA SUBUNIT, PUTATIVE, vehicle control = 1): 1.3 | fold change (protein TB427TMP.02.4550 HY[…], CONSERVED, vehicle control = 1): 0.88 | fold change (protein TB427TMP.02.5660 HY[…], CONSERVED, vehicle control = 1): 0.95 | fold change vs vehicle control (protein TB427TMP.02.5720 RIBONUCLEOSIDE-DIPHOSPHATE REDUCTASE LARGE CHAIN, vehicle control = 1): 0.88 | fold change (protein TB427TMP.160.2370 HY[…], CONSERVED, vehicle control = 1): 0.93 | fold change (protein TB427TMP.160.3630 CAMP-SPECIFIC PHOSPHODIESTERASE, vehicle control = 1): 0.97 | fold change (protein TB427TMP.160.4240 […] PROTEIN-LIKE PROTEIN, vehicle control = 1): 1.2 | fold change vs vehicle control (protein TB427TMP.160.4450 40S RIBOSOMAL PROTEIN S3, PUTATIVE, vehicle control = 1): 1.12 | fold change vs vehicle control (protein TB427TMP.160.4560 ARGININE KINASE, vehicle control = 1): 1.65 | fold change vs vehicle control (protein TB427TMP.160.4630 HY[…], CONSERVED, vehicle control = 1): 0.88 | fold change (protein TB427TMP.160.4770 PROTEIN KINASE, PUTATIVE, vehicle control = 1): 0.84 | fold change (protein TB427TMP.160.4910 FLAVOPROTEIN MONOOXYGENASE, PUTATIVE, vehicle control = 1): 0.97 | fold change (protein TB427TMP.160.5670 HY[…], CONSERVED, vehicle control = 1): 0.99 | fold change (protein TB427TMP.211.2460 HY[…], CONSERVED, vehicle control = 1): 0.99 | fold change vs vehicle control (protein TB427TMP.211.2570 T-COMPLEX PROTEIN 1, ETA SUBUNIT, PUTATIVE, vehicle control = 1): 0.91 | fold change vs vehicle control (protein TB427TMP.211.3140 HY[…], CONSERVED, vehicle control = 1): 1.47 | fold change vs vehicle control (protein TB427TMP.211.3510 ATP-DEPENDENT DEAD/H RNA HELICASE, PUTATIVE, vehicle control = 1): 0.88 | fold change vs vehicle control (protein TB427TMP.211.4170 HY[…], CONSERVED, vehicle control = 1): 0.88 | fold change (protein TB427TMP.47.0011 HY[…], CONSERVED, vehicle control = 1): 0.93 | fold change vs vehicle control (protein TB427TMP.55.0006 INTR[…] PROTEIN IFT88, vehicle control = 1): 0.95 | fold change vs vehicle control (protein TB427TMP.57.0008 CALPAIN-LIKE PROTEIN, PUTATIVE, vehicle control = 1): 0.97 | fold change (protein TB427TMP.V1.0370 HY[…], CONSERVED, vehicle control = 1): 0.88 | fold change vs vehicle control (protein TB427.01.120 RETRO[…] SPOT (RHS) PROTEIN, PUTATIVE, vehicle control = 1): 0.88 | fold change (protein TB427.01.2570 COATOMER BETA SUBUNIT, vehicle control = 1): 0.88 | fold change (protein TB427.01.420 RETRO[…] SPOT (RHS) PROTEIN, PUTATIVE, vehicle control = 1): 0.97 | fold change (protein TB427.01.5030 LEUCINE-RICH REPEAT PROTEIN (LRRP), PUTATIVE, vehicle control = 1): 0.93 | fold change vs vehicle control (protein TB427.02.2970 MIT[…] PROTEIN, PUTATIVE, vehicle control = 1): 1.21 | fold change vs vehicle control (protein TB427.02.6050 BETA PRIME COP PROTEIN, vehicle control = 1): 1.36 | fold change vs vehicle control (protein TB427.03.1210 PROTEIN TRANSPORT PROTEIN SEC24, vehicle control = 1): 1.1 | fold change vs vehicle control (protein TB427.03.3160 POLY(A) POLYMERASE, vehicle control = 1): 0.47 | fold change vs vehicle control (protein TB427.03.4040 HY[…], CONSERVED (Ankyrinrepeat), vehicle control = 1): 2.65 | fold change vs vehicle control (protein TB427.03.4750 AMINOPEPTIDASE, PUTATIVE, vehicle control = 1): 1.1 | fold change (protein TB427.03.4910 SIGNAL PEPTIDE PEPTIDASE, PUTATIVE, vehicle control = 1): 1.22 | fold change (protein TB427.04.1300 HY[…], CONSERVED, vehicle control = 1): 1.2 | fold change vs vehicle control (protein TB427.04.1510 PHOSPHOLIPID-TRA[…], PUTATIVE, vehicle control = 1): 1 | fold change (protein TB427.04.2340 HY[…], CONSERVED, vehicle control = 1): 0.92 | fold change (protein TB427.04.310 HY[…], CONSERVED, vehicle control = 1): 0.6 | fold change (protein TB427.04.420 PHOSPHATIDYLINOSITOL 3-KINASE (TOR2), vehicle control = 1): 0.71 | fold change (protein TB427.04.450 COATOMER ALPHA SUBUNIT, PUTATIVE, vehicle control = 1): 0.86 | fold change vs vehicle control (protein TB427.04.4870 AMINO ACID TRANSPORTER, PUTATIVE, vehicle control = 1): 1.1 | fold change (protein TB427.04.5010 CALRETICULIN, PUTATIVE, vehicle control = 1): 1.53 | fold change vs vehicle control (protein TB427.05.1700 R[…] A 28 KDA SUBUNIT, PUTATIVE, vehicle control = 1): 1.31 | fold change vs vehicle control (protein TB427.05.3260 HY[…], CONSERVED, vehicle control = 1): 0.88 | fold change vs vehicle control (protein TB427.05.4560 GUANINE DEAMINASE, PUTATIVE, vehicle control = 1): 0.93 | fold change vs vehicle control (protein TB427.06.1070 HY[…], CONSERVED, vehicle control = 1): 0.94 | fold change vs vehicle control (protein TB427.06.1500 ALKYL-DIHYDR[…] SYNTHASE, vehicle control = 1): 0.97 | fold change (protein TB427.06.1800 PROTEIN PHOSPHATASE 2C, PUTATIVE, vehicle control = 1): 0.92
